Experimental data as given in US20230357870A1 (priority 2020, published 2023).
Entries after “also recorded” stand apart in the source; their conditions may differ. Read-outs that look alike come from different tables or passages of the source.

Experiments:
[1] = test system: T7GG-scv2-luc-GFP replicon; experiment: microbe, parasite or virus in culture; format: cell-based, SARS-CoV-2
[2] = test system: T7-scv2-luc-GFP replicon (SEQ ID NO: 2); experiment: microbe, parasite or virus in culture; format: cell-based, SARS-CoV-2
[3] = test system: pSmart BAC T7-scv2-replicon; experiment: microbe, parasite or virus in culture; format: cell-based, SARS-CoV-2; conditions: read-out: Antiviral activity (EC50) against T7-scv2-replicon
[4] = test system: pSmart BAC T7-scv1-replicon; experiment: microbe, parasite or virus in culture; format: cell-based, SARS-CoV-1; conditions: read-out: Antiviral activity (EC50) against T7-scv1-replicon
[5] = test system: pSmart BAC T7-mcv-replicon; experiment: microbe, parasite or virus in culture; format: cell-based, MERS; conditions: for EC50: read-out: Antiviral activity (EC50) against T7-mcv-replicon
[6] = Severe acute respiratory syndrome coronavirus 2, HEK-293T
[7] = Severe acute respiratory syndrome coronavirus 2, Calu-1
[8] = Severe acute respiratory syndrome coronavirus 2, Huh7.5
[9] = Severe acute respiratory syndrome coronavirus 2, A549
[10] = Severe acute respiratory syndrome coronavirus 2, Vero
[11] = Severe acute respiratory syndrome coronavirus, HEK-293T
[12] = Middle East respiratory syndrome-related coronavirus, HEK-293T

Row | Compound | EC50 [1, 6] [nM] | EC50 [2, 7] [nM] | EC50 [2, 8] [nM] | EC50 [2, 9] [nM] | EC50 [2, 6] [nM] | EC50 [2, 10] [nM] | EC50 [3, 6] [nM] | EC50 [4, 11] [nM] | EC50 [5, 12] [nM] | EC50 [3] [nM] | EC50 [4] [nM] | EC50 [5] [nM] | also measured
1 | Cc1cccc(/C=N/Nc2cc(N3CCOCC3)nc(OCCc3ccccn3)n2)c1 [Apilimod, apilimod] | > 42000 | > 42000 | > 42000 | – | – | – | – | – | – | – | – | – | –
2 | CN(C)C(=O)COC(=O)Cc1ccc(OC(=O)c2ccc(NC(=N)N)cc2)cc1 [Camostat, camostat] | > 42000 | > 42000 | – | > 42000 | > 42000 | > 42000 | – | – | – | – | – | – | –
3 | N#C[C@@]1(c2ccc3c(N)ncnn23)O[C@H](CO)[C@@H](O)[C@H]1O [GS-441524] | 657 ± 66.4 | 1330 ± 270 | 1030 ± 354 | 1470 ± 163 | 603 ± 131 | 302 ± 19.8 | 603 ± 106 | 1110 ± 86.5 | 5580 ± 357 | – | – | – | concentration to achieve 50% inhibition, MERS replicon compared with SARS-CoV-2 or SARS-CoV-1 replicon [5]: greater concentration; antiviral activity (in words) [1]: active; EC50 [1, 9]: 716 ± 311 nM; EC50 [1, 7]: 1000 ± 217 nM; EC50 [1, 8]: 831 ± 201 nM; EC50 [1, 10]: 324 ± 173 nM; cytotoxicity (293T cells): No cytotoxicity was detected; EC50 ([2]; Severe acute respiratory syndrome coronavirus 2, HEK-293T, 30 h, read-out: potency in inhibiting SARS-CoV-2 replicon replication (EC50), determined by % GFP signal): 645 ± 54.3 nM; EC50 ([2]; Severe acute respiratory syndrome coronavirus 2, HEK-293T, 30 h, read-out: potency in inhibiting SARS-CoV-2 replicon replication (EC50), determined by % luciferase activity): 502 ± 109 nM
4 | CC(C)(C)NC(=O)N[C@H](C(=O)N1C[C@H]2[C@@H]([C@H]1C(=O)NC(CC1CCC1)C(=O)C(N)=O)C2(C)C)C(C)(C)C (stereo partly shown) [MK-3034, Boceprevir] | – | – | – | – | – | – | 3550 ± 346 | 6410 ± 427 | 4670 ± 519 | – | – | – | –
5 | N=C(N)c1ccc2cc(OC(=O)c3ccc(N=C(N)N)cc3)ccc2c1 [Nafamostat, nafamostat] | > 42000 | > 42000 | – | > 42000 | > 42000 | – | – | – | – | – | – | – | EC50 ([2]; Severe acute respiratory syndrome coronavirus 2, Vero C1008): > 42000 nM
6 | CC(C)C[C@H](NC(=O)c1cc2ccccc2o1)C(=O)N[C@H]1CC[C@@H](C)N(S(=O)(=O)c2ccccn2)CC1=O [Relacatib, relacatib] | > 42000 | > 42000 | – | > 42000 | > 42000 | > 42000 | – | – | – | – | – | – | –
7 | CCC(CC)COC(=O)[C@H](C)N[P@](=O)(OC[C@H]1O[C@@](C#N)(c2ccc3c(N)ncnn23)[C@H](O)[C@@H]1O)Oc1ccccc1 [Remdesivir, remdesivir] | – | 62.8 | 18.9 | 184 | 11.3 | 2240 | 15.6 ± 5.1 | 42.9 ± 3.4 | 81.5 ± 8.8 | – | – | – | –
8 | GC373 | – | – | – | – | – | – | – | – | – | 19.7 ± 4.6 | 74 ± 4.5 | 29.2 ± 3.7 | –
9 | GC376 | – | – | – | – | – | – | – | – | – | 20.8 ± 5.6 | 75.9 ± 23.2 | 35.2 ± 5.3 | antiviral activity (in words) [1]: highly potent; also recorded: modestly active; cytotoxicity (293T cells): No cytotoxicity was detected; EC50 ([2]; read-out: potency in inhibiting SARS-CoV-2 replicon replication (EC50), determined by % GFP signal): 22 ± 5.13 nM; EC50 ([2]; read-out: potency in inhibiting SARS-CoV-2 replicon replication (EC50), determined by % luciferase activity): 29.2 ± 9.17 nM
10 | PF-00835231 | – | – | – | – | – | – | – | – | – | 74.8 ± 20 | 167 ± 15.3 | 101 ± 33 | fold lower in Vero cells [1]: 75-300 fold
